Assay results published in US10301288B2, “Kinase inhibitors” (Topivert Pharma Limited, priority 2013, dated 2019).

Key:
[1] = Cryopreserved hepatocyte stability, rat; type: in vitro ADME; conditions: pooled cryopreserved hepatocytes, read-out: Mean intrinsic clearance
Description: Formulae Clint(tissue clearance) mL/min/kg=[0.693/t½ (min)]×[1/microsomal protein concentration mg/mL]×[mg microsomes/g liver]×[g liver/kg body weight] […] The incubations were performed at 37° C. with 100 μL, samples taken from the incubation, at 0, 10, 20, 45 and 90 minutes, and reactions terminated by addition of 100 μL of acetonitrile containing carbamazepine as analytical internal standard. […] Half-life values were calculated from the relationship T1/2 (min)=−0.693/λ • where λ was the slope of the Ln concentration vs time curve. • Standard compounds testosterone, midazolam and 4-methylumbelliferone are included in the assay design.
Clint(Tissue Clearance) mL/min/kg=[0.693/t½(min)]×[1/hepatocyte concentration (million cells/mL)]×[million cells/g liver]×[g liver/kg body weight] Clint(Hepatic clearance) mL/min/kg=hepatic blood flow×Clint/(hepatic blood flow+Clint) Hepatic extraction ratio(Eh)=Clint(Hepatic clearance) mL/min/kg/hepatic blood flow (mL/min/kg)

[2] = tested on: Naïve CD4+ T cells; assay: (g) T cell proliferation; type: cell-based; conditions: Homo sapiens, assay (g), read-out: IC50 for inhibition of T cell proliferation
Description: PBMCs from healthy subjects are separated from whole blood using a density gradient (Lymphoprep, Axis-Shield Healthcare). The lymphocyte fraction is first enriched for CD4+ T cells by negative magnetic cell sorting as per the manufacturer's instructions (Miltenyi Biotec 130-091-155). Naïve CD4+ T cells are then separated using positive magnetic selection of CD45RA+ cells using microbeads as per the manufacturer's instructions (130-045-901). Cells are plated at 2×10^5 cells per well in 100 μL RPMI/10% FBS on 96 well flat bottomed plate (Corning Costar). 25 μL of test compound are diluted to the appropriate concentration (8× final conc.) in normal medium and added to duplicate wells on the plate to achieve a dose response range of 0.03 ng/mL-250 ng/mL. DMSO is added as a negative control. Plates are allowed to pre-incubate for 2 hours before stimulation with 1 μg/mL anti-CD3 (OKT3; eBioscience). After 72 h, the medium in each well is replaced with 150 μL of fresh medium containing 10 μM BrdU (Roche). […] The reaction is stopped by addition of 50 μL of 1 M H2SO4, and read for absorbance at 450 nm on a plate reader (Varioskan® Flash, ThermoFisher Scientific). The IC50 is determined from the dose response curve.

[3] = tested on: β-catenin; assay: (m) Accumulation of β catenin in d-U937 cells; type: cell-based, human; conditions: Reference Compound at 1 μg/mL defined as 100%
Summary of the method: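 Read-out: colourimetric cell-based immunoassay for endogenous β-catenin (OD450 minus 655 reference), normalised to crystal violet absorbance at 595 nm. Test compound or vehicle was applied for 18 hr to U937 monocytes first differentiated with PMA (100 ng/mL) for 48–72 hr.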

- hepatocyte CLint at 0.1 μM [1]: 49 µL/min/1e6 cells
SMILES: C#Cc1cc(Nc2nccc(Oc3ccc(NC(=O)Nc4cc(C(C)(C)C)nn4-c4ccc(C)cc4)c4ccccc34)n2)cc(C(=O)NCCOCCOCCOC)c1 [Example 2, 3-((4-((4-(3-(3-(tert-Butyl)-1-(p-tolyl)-1H-pyrazol-5-yl)ureido)naphthalen-1-yl)oxy)pyrimidin-2-yl)amino)-5-ethynyl-N-(2-(2-(2-methoxyethoxy)ethoxy)ethyl)-benzamide]
- IC50 [2]: 2.7 nM
- % β-catenin induction ([3]; 1 μg/mL): 0%
- % β-catenin induction ([3]; 5 μg/mL): 2%
- % β-catenin induction ([3]; 10 μg/mL): 0%
